Assay results: PMC4750701, “Role of Mitochondrial RNA Polymerase in the Toxicity of Nucleotide Inhibitors of Hepatitis C Virus” (Antimicrobial Agents and Chemotherapy, 2016)

What was measured:
[1] = Cytotoxicity in stimulated PBMCs, 5 days; details: human, stimulated PBMCs
Procedure: Human peripheral blood mononuclear cells (PBMCs) were isolated from human buffy coats obtained from healthy volunteers (Stanford Blood Bank, Palo Alto, CA) using standard Ficoll separation and stimulated as described elsewhere ([13]) and were tested at both quiescent and stimulated stages. Quiescent PBMCs were stimulated with 10 units per ml of recombinant human interleukin 2 (hIL-2) and 1 μg per ml phytohemagglutinin P (PHA-P) for 48 h prior to drug treatment.
(§1) All cells were cultured at 37°C in a 5% CO2 incubator with 90% humidity unless noted otherwise. […] All cells were treated with the various compounds for 5 days, except for human erythroid and myeloid progenitors, which were treated for 14 days. After the incubation period, cell viability was measured by the addition of CellTiter Glo viability reagents (Promega, Madison, WI). The luminescence signal was quantified on an Envision luminescence plate reader (PerkinElmer, Waltham, MA) after incubation of the reagents and cells for 10 min at room temperature. […] CC50 values were calculated as the average of the results of three or four independent experiments.
Human peripheral blood mononuclear cells (PBMCs) were isolated from human buffy coats
obtained from normal healthy volunteers (Stanford Medical School Blood Center, Palo Alto,
CA). Total PBMCs were isolated from buffy coats using standard Ficoll separation and sterile
cellular isolation techniques performed in a bio-safety cabinet (1). Except where noted, the
procedure was carried out at room temperature. The final PBMCs pellet was resuspended in
Logan, UT), penicillin 100 units/mL and streptomycin 100 µg/mL (Gibco). For quiescent
PBMCs cultures, total cells were seeded in 96-well plates at a density of 1 x 10^6 cells per well, followed by immediate drug treatment. Stimulated PBMCs cultures were set up by seeding the freshly isolated PBMCs in T-175cm2 tissue culture flasks in 100 mL of RPMI containing the same components as the ones used for the quiescent PBMCs but with the addition of 10 units per mL of recombinant human interleukin-2 (hIL-2, Roche, Indianapolis, IN), and 1 µg per mL phytohemagglutinin-P (PHA-P, Sigma-Aldrich, St. Louis, MO) at density of 2  10^6 cells per mL for 48 hours at 37C in a 5% CO2 incubator with 90% humidity, prior to drug treatment.

[2] = system: Prostate cells (PC-3); experiment: Cytotoxicity / ATP level in PC-3 cells, 5-day treatment; details: read-out: Mean CC50 ± SD causing General cellular toxicity: ATP level; PC-3 cells, 5 days
Procedure: as §1
Cell Culture and Cytotoxicity Studies
(§2) The Huh-7 cells were maintained in growth medium containing Dulbecco's Modified Eagle
(§3) Medium (DMEM, Cellgro) supplemented with 1% Nonessential Amino Acids (NEAA, Cellgro,
(§4) Manassas, VA), 10% fetal bovine serum (FBS, HyClone, Logan, UT) and 1% Penicillin-
(§5) streptomycin-glutamate (PSG, Invitrogen, Carlsbad, CA). The cells were passaged twice weekly
(§6) and maintained at 90% confluence densities.
(§7) The HepG2 cells were maintained in Eagle’s Minimum Essential Medium (EMEM) from ATCC
(§8) (Manassas, VA) supplemented with 10% FBS, 100 units/mL penicillin and 100 µg/mL
(§9) streptomycin (P/S) (Gibco). The cells were passaged twice weekly and maintained at 90%
(§10) The PC-3 cells were maintained in Kaighn’s F12 medium (Gibco, Carlsbad, CA) supplemented
(§11) with 10% FBS (HyClone, Logan, UT), 100 units/mL penicillin and 100 µg/mL streptomycin
(§12) (P/S) (Gibco). The cells were passaged twice weekly and maintained at 90% confluence. Cells
(§13) between passages 4 and 15 were used in the assays.
(§14) The fibroblast cell line MRC-5 cell line derived from normal lung tissue, was purchased from
(§15) ATCC (Manassas, VA) and cultured in Minimum Essential Medium (MEM) (Cellgro, Manassas,
(§16) VA) supplemented with 10% FBS (HyClone, Logan, UT) and 1% PSG (Invitrogen). The cells
(§17) were passaged twice weekly and maintained at 90% confluence densities.

[3] = as above; details: human, PC-3 cells
Procedure: as §1
Cell Culture and Cytotoxicity Studies
as §2, §3, §4, §5, §6, §7, §8, §9, §10, §11, §12, §13, §14, §15, §16, §17

[4] = Cytotoxicity in primary human hepatocytes, 5 days; details: human, primary human hepatocytes
Procedure: Primary human hepatocytes were from Bioreclamation IVT (Westbury, NY) or Life Technologies (Carlsbad, CA).
as §1

[5] = Cytotoxicity in MRC5 fibroblasts, 5-day treatment; details: human, MRC5 fibroblasts
Procedure: as §1
Cell Culture and Cytotoxicity Studies
as §2, §3, §4, §5, §6, §7, §8, §9, §10, §11, §12, §13, §14, §15, §16, §17

[6] = Cytotoxicity in Huh7 cells, 5-day treatment (CellTiter Glo); details: human, Huh-7 cells
Procedure: as §1
Cell Culture and Cytotoxicity Studies
as §2, §3, §4, §5, §6, §7, §8, §9, §10, §11, §12, §13, §14, §15, §16, §17

[7] = molecular target: T1, recombinant human PolRMT (Homo sapiens, UniProt O00411); experiment: Single-nucleotide incorporation by PolRMT; assay type: biochemical; details: triphosphate form, fixed saturating concentration 500 μM, rate relative to corresponding natural rNTP
T1 construct: purchased Enzymax (Lexington, KY)
Text: Activated fish sperm DNA was purchased from USB/Affymetrix (Santa Clara, CA) and used as a template for the DNA polymerases alpha, beta, and gamma. The DNA template used in the RNA Pol II assay was a 1,188-bp restriction fragment containing the cytomegalovirus (CMV) immediate early promoter (Promega, Madison, WI). The RNA and DNA oligonucleotides used in the mitochondrial RNA polymerase assay (see Table S1 in the supplemental material) were synthesized and PAGE purified by Thermo Scientific/Dharmacon (Lafayette, CO). RNA primer R12 was 5′-^32P-phosphorylated with [γ-^32P]ATP (3,000 Ci/mmol) and T4 kinase (New England BioLabs, Ipswich, MA).
Human DNA polymerase alpha, isolated from HeLa cell extracts, was from CHIMERx (Madison, WI). Recombinant human DNA polymerase beta, expressed in E. coli, was a gift from Zucai Suo at The Ohio State University. Recombinant human DNA polymerase gamma (including both the large subunit and the small subunit) was cloned, expressed, and purified from insect cells by Gilead Sciences (Foster City, CA) ([13]). RNA PolII was purchased as part of the HeLaScribe nuclear extract in vitro transcription system kit from Promega (Madison, WI). The recombinant human PolRMT and the transcription factors mitochondrial transcription factor A (mtTFA) and B2 (mtTFB2) were purchased from Enzymax (Lexington, KY). FLAG epitope-tagged RNA PolI and PolIII complexes were isolated from rat NSN1 cells and HeLa cells, respectively ([17], [18]). The inhibition of DNA polymerases alpha, beta, and gamma, PolRMT, and PolII and the rate of single-nucleotide incorporation by PolRMT have been described previously in detail ([12], [13], [19]). Inhibition of RNA PolI and PolIII was studied using published methods ([20], [21]). All concentrations were final unless noted otherwise. For the RNA PolI inhibition assay, a reaction mixture containing 50 mM HEPES (pH 7.9), 20% glycerol, 100 mM KCl, 1 mM dithiothreitol (DTT), 50 μg/ml calf thymus DNA, 4 mM MgCl2, 5 or 80 μM UTP (0.25 μl of [5,6-^3H]UTP, >25 Ci/mmol; PerkinElmer), 1 mM noncompeting NTP, competing NTP (5 μM for GTP, CTP, and UTP and 25 μM for ATP), and various concentrations (0 to 500 μM) of NTP analogs was preincubated at 30°C for 5 min. […] After incubation at 30°C for 20 min to 1 h, the reactions were terminated by pipetting the mixtures onto DEAE-cellulose discs (DE81; Whatman), and the products analyzed as described previously ([20], [21]).
Supplementary Table S1: RNA primer and templates used in mitochondrial RNA
polymerase single nucleotide incorporation assay.
Oligonucleotides Sequencesa
Primer (R12) 5’-[…]-3’
Templates (D18) 3’-[…]-5’
a The bold letter in the template sequences denotes the bases that pair with the incoming NTP. […]

[8] = Bone marrow myeloid progenitor colony assay, 14 days; assay type: cell-based, human; details: human, read-out: Mean CC50 ± SD in Bone marrow cells Myeloid; for CC50 at 14 days: human bone marrow myeloid progenitors
[9] = system: mitochondrial spare respiratory capacity; experiment: Oxygen consumption rate / spare respiratory capacity in PC-3 cells; details: human, pH 7.4
[10] = system: mitochondrial spare respiratory capacity in PC-3 cells; experiment: as above; details: PC-3 cells, 3-day treatments
[11] = system: mitochondrial DNA-encoded cytochrome c oxidase (COX-1); experiment: Mitochondrial protein synthesis assay (COX-1, MitoBiogenesis in-cell ELISA) in PC-3 cells; assay type: cell-based, human; details: PC-3 cells; for selectivity of effect on COX-1 versus SDH-A and ATP levels: 5-day treatments
Summary of the method: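 PC-3 cells were exposed to compound for 5 days. Protein levels of nuclear-encoded SDH-A and mitochondrial-encoded COX-1 were then quantified by in-cell ELISA (quantitative immunocytochemistry).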

[12] = system: human erythroid progenitors (bone marrow cells); details: read-out: Mean CC50 ± SD in Bone marrow cells Erythroid; 14 days; cited from earlier work
[13] = system: human myeloid progenitors (bone marrow cells); details: read-out: Mean CC50 ± SD in Bone marrow cells Myeloid; 14 days; cited from earlier work
[14] = Spare respiratory capacity in primary rat cardiomyocytes; details: Sprague Dawley, rat, primary rat neonatal cardiomyocytes
[15] = Cytotoxicity in primary rat neonatal cardiomyocytes, 5 days; assay type: cell-based; details: Sprague Dawley, 5-day treatment, read-out: CC50 (mean ± standard deviation) in primary rat cardiomyocytes
[16] = system: PC-3 cells; experiment: Active triphosphate metabolite in PC-3 cells (LC-MS/MS); assay type: in vitro ADME, human; details: 10 μM incubation, maximal concentration observed after 48 h during a 5-day incubation
Procedure: The amount of nucleoside triphosphate was determined from three independent studies by ion-pairing liquid chromatography-tandem mass spectrometry (LC-MS/MS) as previously described ([16]). All compounds were incubated with the cells at 10 μM, except for BMS-986094 and NM107, which were incubated at 0.1 and 1 μM, respectively, due to the cytotoxicity observed at higher concentrations. Triphosphate concentrations for BMS-986094 and 2′CMeC were applied at doses normalized to the concentrations anticipated after a 10 μM incubation for comparison with the other NI. The reported TP levels are the maximal concentrations observed after 48 h during a 5-day incubation.

T1 sequence (O00411 42-1230): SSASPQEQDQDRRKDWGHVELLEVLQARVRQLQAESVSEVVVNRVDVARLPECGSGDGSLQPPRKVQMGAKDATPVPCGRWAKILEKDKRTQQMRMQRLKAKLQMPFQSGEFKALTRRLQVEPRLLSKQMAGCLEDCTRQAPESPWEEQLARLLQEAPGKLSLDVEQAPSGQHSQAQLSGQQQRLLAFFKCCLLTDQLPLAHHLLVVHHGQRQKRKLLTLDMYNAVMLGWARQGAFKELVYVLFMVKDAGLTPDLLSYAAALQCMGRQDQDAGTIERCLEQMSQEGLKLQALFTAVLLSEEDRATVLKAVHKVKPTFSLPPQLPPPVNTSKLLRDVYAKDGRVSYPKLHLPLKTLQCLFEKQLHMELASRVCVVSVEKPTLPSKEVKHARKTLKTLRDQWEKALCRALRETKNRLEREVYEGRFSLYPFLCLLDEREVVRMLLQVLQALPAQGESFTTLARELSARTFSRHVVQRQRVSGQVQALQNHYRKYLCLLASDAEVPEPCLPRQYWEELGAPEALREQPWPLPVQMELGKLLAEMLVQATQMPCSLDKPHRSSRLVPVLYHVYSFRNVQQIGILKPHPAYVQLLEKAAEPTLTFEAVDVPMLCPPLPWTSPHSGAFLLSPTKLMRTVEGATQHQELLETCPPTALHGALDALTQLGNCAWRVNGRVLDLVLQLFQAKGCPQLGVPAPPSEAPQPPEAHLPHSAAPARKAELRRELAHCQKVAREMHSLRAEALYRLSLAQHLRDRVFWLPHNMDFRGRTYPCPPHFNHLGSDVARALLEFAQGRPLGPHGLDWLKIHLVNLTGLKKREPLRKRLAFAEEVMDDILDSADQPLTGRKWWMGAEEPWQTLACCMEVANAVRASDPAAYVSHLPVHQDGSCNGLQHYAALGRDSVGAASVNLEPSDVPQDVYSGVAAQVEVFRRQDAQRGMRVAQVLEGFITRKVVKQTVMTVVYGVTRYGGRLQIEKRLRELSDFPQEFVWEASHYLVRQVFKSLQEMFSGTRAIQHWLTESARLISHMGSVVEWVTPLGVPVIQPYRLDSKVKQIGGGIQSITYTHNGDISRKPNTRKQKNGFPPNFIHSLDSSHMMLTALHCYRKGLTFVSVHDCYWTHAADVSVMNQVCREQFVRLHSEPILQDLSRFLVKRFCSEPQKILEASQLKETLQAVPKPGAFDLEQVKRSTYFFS

Compound | Substrate incorporation (% of NTP [mean ± SD]) of PolRMT [7] | CC50 at 5 days [1] | CC50 [2] | CC50 at 5 days [3] | CC50 at 5 days [4] | CC50 at 5 days [5] | CC50 at 5 days [6] | CC50 at 14 days [8] | also measured
C[C@@]1(O)[C@H](O)[C@@H](CO)O[C@H]1n1ccc(N)nc1=O [2′CMeC, 2′-C-methyl (2′CMe) cytidine] | – | 64 ± 18 µM | – | 49 ± 18 µM | > 100 µM | 69 ± 1 µM | > 89 µM | 76 ± 16 µM | CC50 at 3 days ([9]; PC-3 cells): 100 µM
[N-]=[N+]=N[C@]1(CO)O[C@@H](n2ccc(N)nc2=O)[C@H](O)[C@@H]1O [4′-AzidoC, 4′-azido cytidine] | – | > 100 µM | – | 30 ± 6 µM | > 100 µM | > 89 µM | > 89 µM | 108 ± 12 µM | selectivity of effect on spare respiratory capacity versus DNA and ATP levels [10]: selective inhibition of mitochondrial respiration; CC50 at 3 days ([9]; PC-3 cells): 4.5 ± 0.3 µM; selectivity of effect on COX-1 versus SDH-A and ATP levels [11]: selective inhibition of COX-1 synthesis
CC(C)OC(=O)[C@H](C)N[P@](=O)(OC[C@H]1O[C@@H](n2ccc(=O)[nH]c2=O)[C@](C)(F)[C@@H]1O)Oc1ccccc1 [Sofosbuvir] | 0.45 ± 0.40 % of NTP | – | > 100 µM | – | – | – | – | – | CC50 [12]: > 100 µM; CC50 [13]: > 100 µM; Substrate incorporation (% of NTP [mean ± SD]) of PolRMT ([7]; listed as sofosbuvir): < 1 % of NTP
C[C@@]1(O)[C@H](O)[C@@H](COP(=O)(O)OP(=O)(O)OP(=O)(O)O)O[C@H]1n1cnc2c(=O)[nH]c(N)nc21 [2′CMeGTP] | 92 ± 33 % of NTP | – | – | – | – | – | – | – | –
COc1nc(N)nc2c1ncn2[C@@H]1O[C@H](COP(=O)(N[C@@H](C)C(=O)OCC(C)(C)C)Oc2cccc3ccccc23)[C@@H](O)[C@@]1(C)O (stereo partly drawn) [BMS-986094] | rates similar to those of their corresponding natural rNTPs | – | – | – | – | – | – | – | selectivity of effect on spare respiratory capacity versus DNA and ATP levels [10]: selective inhibition of mitochondrial respiration; CC50 at 3 days [9]: 0.48 ± 0.07 µM; CC50 at 3 days [14]: 0.43 ± 0.14 µM; potentiation of mitochondrial and cellular toxicity by coincubation with RBV ([11]; 5-day treatment, RBV 10 μM): 3- to 4 fold; selectivity of effect on COX-1 versus SDH-A and ATP levels [11]: selective inhibition of COX-1 synthesis; CC50 at 5 days [15]: 0.68 ± 0.32 µM; CC50 [8]: 2.6 ± 0.5 µM
CC(C)OC(=O)[C@H](C)N[P@](=O)(OC[C@H]1O[C@@](C#N)(c2ccc3c(N)ncnn23)[C@](C)(O)[C@@H]1OC(=O)C(C)C)Oc1ccccc1 [GS-6620] | – | – | – | – | – | – | – | – | CC50 [12]: 15 ± 7 µM; CC50 [13]: 3.1 ± 2.6 µM; Mean TP concn ± SD [16]: BLQ

The next lines start with results.

Substrate incorporation (% of NTP [mean ± SD]) of PolRMT [7] | Compound | CC50 at 5 days [1] | CC50 [2] | CC50 at 5 days [3] | CC50 at 5 days [4] | CC50 at 5 days [5] | CC50 at 5 days [6] | CC50 at 14 days [8] | also measured
1.6 ± 0.2 % of NTP | CCOc1nc(N)nc2c1ncn2[C@@H]1O[C@@H]2COP(=O)(OC(C)C)O[C@H]2[C@@]1(C)F (stereo partly drawn) [PSI-938] | > 100 µM | > 100 µM | > 100 µM | > 100 µM | > 89 µM | > 89 µM | > 100 µM | –
0.81 ± 0.13 % of NTP | C[C@@]1(F)[C@H](O)[C@@H](CO)O[C@H]1n1ccc(N)nc1=O [PSI-6130] | 100 µM | > 100 µM | > 100 µM | > 100 µM | > 89 µM | > 89 µM | – | –
